{
  "source": "paper PMC5920559",
  "about": "(Journal of medicinal chemistry, 2017)",
  "key": {"[1]": {"system": "LC3-I/II and p62 in HEK293 cells", "experiment": "autophagy markers immunoblot", "assay_type": "cell-based", "conditions": "8 h"}, "[2]": {"system": "SMN2-luc reporter cell line", "experiment": "SMN2-luciferase", "assay_type": "cell-based", "conditions": "24 h"}, "SMN-luc fusion": {"target": "SMN-luc fusion (UniProt P08659+Q16637)", "experiment": "SMN-luc protein stability with cycloheximide", "assay_type": "cell-based", "conditions": "with cycloheximide 10 µM, compound 10 µM"}, "severe SMA mice (SMNΔ7)": {"system": "severe SMA mice (SMNΔ7)", "conditions": "severe SMA mice (SMNΔ7) printed for 5; cited from earlier work"}, "[3]": {"target": "endogenous SMN protein in HEK293 cells (Homo sapiens, UniProt Q16637)", "sequence (Q16637 whole entry)": "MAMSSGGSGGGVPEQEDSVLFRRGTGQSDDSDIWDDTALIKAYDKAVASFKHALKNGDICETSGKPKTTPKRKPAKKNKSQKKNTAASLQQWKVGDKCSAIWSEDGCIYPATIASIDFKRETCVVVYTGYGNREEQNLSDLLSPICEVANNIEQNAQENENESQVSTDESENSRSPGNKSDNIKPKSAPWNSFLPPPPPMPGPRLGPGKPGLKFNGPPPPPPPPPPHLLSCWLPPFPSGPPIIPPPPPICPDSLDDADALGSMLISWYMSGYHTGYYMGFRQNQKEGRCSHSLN", "experiment": "pulse-chase SMN protein half-life", "assay_type": "cell-based", "conditions": "10 µM"}, "[4]": {"system": "human SMN protein in 3813T fibroblasts", "conditions": "cited from earlier work"}, "SMN-luciferase mRNA [5]": {"system": "SMN-luciferase mRNA", "conditions": "cited from earlier work"}, "[6]": {"system": "renilla luciferase protein", "experiment": "Renilla-luc protein stability with cycloheximide", "conditions": "with cycloheximide 10 µM, compound 10 µM"}, "[7]": {"system": "polyubiquitinated proteins in HEK293 cells", "experiment": "polyubiquitinated proteins immunoblot", "assay_type": "cell-based", "conditions": "for effect on basal level of polyubiquitinated proteins: 1 and 10 µM"}, "mouse pharmacokinetics": {"experiment": "mouse pharmacokinetics", "assay_type": "in vivo", "conditions": "for Cmax: plasma, plasma Cmax"}, "[8]": {"system": "p53 and p21-Cip1 in HEK293 cells", "experiment": "levels of short-lived proteins p53 and p21", "assay_type": "cell-based", "conditions": "alone or after cycloheximide"}, "SMN-luciferase mRNA [9]": {"system": "SMN-luciferase mRNA", "experiment": "qRT-PCR of SMN-luciferase mRNA", "assay_type": "cell-based", "conditions": "1, 10 µM, 24 h"}, "[10]": {"experiment": "plasma protein binding, human plasma", "assay_type": "in vitro ADME"}, "SH5Y5Y cells": {"system": "SH5Y5Y cells", "experiment": "cell viability", "assay_type": "cell-based", "conditions": "up to 100× its EC50, 48 h"}, "SMN2 reporter cells": {"system": "SMN2 reporter cells", "experiment": "constant ratio combination experiment in SMN2 reporter cells", "assay_type": "cell-based"}, "58 kinase panel": {"system": "58 kinase panel", "experiment": "58 kinase panel", "assay_type": "biochemical", "conditions": "10 µM"}, "hERG": {"target": "hERG (Homo sapiens, UniProt Q12809)", "sequence (Q12809 whole entry)": "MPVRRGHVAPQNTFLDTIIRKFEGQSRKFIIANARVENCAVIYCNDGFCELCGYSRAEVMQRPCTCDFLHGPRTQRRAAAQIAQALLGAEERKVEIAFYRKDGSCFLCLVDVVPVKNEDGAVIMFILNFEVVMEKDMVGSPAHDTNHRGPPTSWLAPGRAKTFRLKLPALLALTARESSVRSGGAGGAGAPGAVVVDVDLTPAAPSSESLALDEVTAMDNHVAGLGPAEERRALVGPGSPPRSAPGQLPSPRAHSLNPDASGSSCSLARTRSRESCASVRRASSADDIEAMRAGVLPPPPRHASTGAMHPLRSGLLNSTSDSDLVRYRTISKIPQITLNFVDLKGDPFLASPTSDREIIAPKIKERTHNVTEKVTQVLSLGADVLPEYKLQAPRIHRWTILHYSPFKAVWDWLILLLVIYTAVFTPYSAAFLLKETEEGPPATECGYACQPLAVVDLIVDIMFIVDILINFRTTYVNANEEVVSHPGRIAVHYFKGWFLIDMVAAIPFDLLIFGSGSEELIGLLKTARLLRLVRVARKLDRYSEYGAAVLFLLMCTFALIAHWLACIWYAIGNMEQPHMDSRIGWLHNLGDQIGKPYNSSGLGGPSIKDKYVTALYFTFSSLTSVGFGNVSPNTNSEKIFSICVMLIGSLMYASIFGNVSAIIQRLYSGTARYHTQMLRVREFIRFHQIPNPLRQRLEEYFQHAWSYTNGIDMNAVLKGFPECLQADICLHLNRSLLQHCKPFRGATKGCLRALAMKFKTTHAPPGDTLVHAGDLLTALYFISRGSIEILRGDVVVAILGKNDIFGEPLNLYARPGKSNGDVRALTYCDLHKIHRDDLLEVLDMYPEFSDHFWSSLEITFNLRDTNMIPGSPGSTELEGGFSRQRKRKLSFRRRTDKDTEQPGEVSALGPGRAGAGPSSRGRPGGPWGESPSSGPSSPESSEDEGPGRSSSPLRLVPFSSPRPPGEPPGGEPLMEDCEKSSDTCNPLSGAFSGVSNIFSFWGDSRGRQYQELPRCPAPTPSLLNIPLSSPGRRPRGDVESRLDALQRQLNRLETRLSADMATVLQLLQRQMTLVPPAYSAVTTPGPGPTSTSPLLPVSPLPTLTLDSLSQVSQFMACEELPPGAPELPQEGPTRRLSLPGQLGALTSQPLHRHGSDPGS", "experiment": "hERG safety profiling", "conditions": "10 µM"}, "[11]": {"experiment": "kinetic solubility at pH 7.4", "assay_type": "physicochemical", "conditions": "aqueous medium (buffer not named)"}, "[12]": {"experiment": "plasma protein binding, mouse plasma", "assay_type": "in vitro ADME"}, "[13]": {"system": "64 target broad panel (e.g., GPCRs and ion channels)", "experiment": "64 target broad panel screen", "conditions": "10 µM"}, "SV40 reporter cells": {"system": "SV40 reporter cells", "experiment": "SV40 promoter luciferase counterscreen", "assay_type": "cell-based"}, "acid stability in HCl": {"experiment": "acid stability in HCl", "assay_type": "physicochemical", "conditions": "0.1 and 1 N HCL, 37 °C, each time point 1, 2, 4, 6, 24 h, LCMS"}, "[14]": {"system": "MBP-HPV-16 E6 mediated degradation of p53", "experiment": "HPV16 E6 mediated p53 in vitro degradation assay", "assay_type": "biochemical", "conditions": "preincubation of rabbit reticulocyte lysates, 30 min"}, "recombinant luciferase": {"target": "recombinant luciferase (Photinus pyralis, UniProt P08659)", "sequence (P08659 whole entry)": "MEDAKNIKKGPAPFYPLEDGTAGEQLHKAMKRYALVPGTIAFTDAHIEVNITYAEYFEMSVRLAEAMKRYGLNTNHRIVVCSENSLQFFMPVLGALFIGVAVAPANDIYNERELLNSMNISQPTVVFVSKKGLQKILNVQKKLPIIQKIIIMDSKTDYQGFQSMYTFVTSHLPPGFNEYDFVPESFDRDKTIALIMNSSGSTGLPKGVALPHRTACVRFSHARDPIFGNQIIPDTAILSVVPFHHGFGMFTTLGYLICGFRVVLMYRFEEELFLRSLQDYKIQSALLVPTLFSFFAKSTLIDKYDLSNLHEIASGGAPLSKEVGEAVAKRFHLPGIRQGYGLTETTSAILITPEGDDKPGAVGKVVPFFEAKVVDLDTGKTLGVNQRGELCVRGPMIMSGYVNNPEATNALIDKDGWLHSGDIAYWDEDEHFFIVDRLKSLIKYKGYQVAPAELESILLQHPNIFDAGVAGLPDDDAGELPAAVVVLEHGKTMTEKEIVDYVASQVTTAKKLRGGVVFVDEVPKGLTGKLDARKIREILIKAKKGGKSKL", "experiment": "recombinant luciferase activity", "assay_type": "biochemical"}},
  "note": "Like-named read-outs stand apart in the source and are kept apart here. Peptide text beside a SMILES is read from it. * marks the point of attachment. Cbz = O=C(OCc1ccccc1)*",
  "data": [
    {"smiles": "CCN(CC)CCCC(C)Nc1ccnc2cc(Cl)ccc12", "note": "(stereo not drawn) [Chloroquine, reference compound]", "values": [
      {"measurement": "effect on p62 and LC-3 II protein levels", "setting": "[1]", "value": "increased"}
    ]},
    {"smiles": "CC(C)c1cc(C(=O)Nc2ccc(F)c(Cl)c2)no1", "note": "[Compound 4, N-(3-Chloro-4-fluorophenyl)-5-isopropylisoxazole-3-carboxamide]", "values": [
      {"measurement": "EC50", "setting": "[2]", "value": 1800, "unit": "nM"},
      {"measurement": "stabilization of SMN-luc fusion", "setting": "SMN-luc fusion", "value": "stabilized"},
      {"measurement": "in vivo activity", "setting": "severe SMA mice (SMNΔ7)", "value": "inactive"},
      {"measurement": "effect on SMN protein half-life", "setting": "[3]", "value": "increased"},
      {"measurement": "SMN expression in SMA-derived fibroblast", "setting": "[4]", "value": "promoted increases"},
      {"measurement": "effect on SMN mRNA expression and exon 7 inclusion", "setting": "SMN-luciferase mRNA [5]", "value": "did not alter SMN mRNA expression or exon 7 inclusion"}
    ]},
    {"smiles": "O=C(CCCCCCC(=O)Nc1ccccc1)NO", "note": "[SAHA, suberoylanilide hydroxamic acid, reference compound]", "values": [
      {"measurement": "stabilization of renilla luciferase protein", "setting": "[6]", "value": "Neither"},
      {"measurement": "stabilization of SMN-luc fusion", "setting": "SMN-luc fusion", "value": "Neither"}
    ]},
    {"smiles": "CC(C)C[C@@H](C=O)NC(=O)[C@H](CC(C)C)NC(=O)[C@H](CC(C)C)NC(=O)OCc1ccccc1", "note": "[MG-132] (Cbz-Leu-Leu-Leu-aldehyde)", "values": [
      {"measurement": "effect on basal level of polyubiquitinated proteins", "setting": "[7]", "value": "increased"},
      {"measurement": "inhibition of cycloheximide-induced reduction of polyubiquitinated proteins", "setting": "[7]; 2 h pretreatment then cycloheximide 10 µM", "value": "inhibited"},
      {"measurement": "effect on SMN protein half-life", "setting": "[3]", "value": "increased"}
    ]},
    {"smiles": "CC(C)c1cc(C(=O)Nc2ccccn2)no1", "note": "[Compound 4m, 5-Isopropyl-N-(pyridin-2-yl)isoxazole-3-carboxamide]", "values": [
      {"measurement": "brain Cmax", "setting": "mouse pharmacokinetics; 20 mpk ip, 20 mg/kg", "value": 6, "unit": "ng/mL"},
      {"measurement": "plasma Cmax", "setting": "mouse pharmacokinetics; 20 mpk ip, 20 mg/kg", "value": 3, "unit": "ng/mL"},
      {"measurement": "plasma and brain levels after 30 min", "setting": "mouse pharmacokinetics; ip 20 mg/kg", "value": "below the levels of detection"}
    ]},
    {"smiles": "COc1cc2c(c(OC)c1OC)C(c1cc(Br)ccc1F)CC(=O)N2", "note": "(stereo not drawn) [Compound 5, reference compound]", "values": [
      {"measurement": "stabilization of renilla luciferase protein", "setting": "[6]", "value": "Neither"},
      {"measurement": "stabilization of SMN-luc fusion", "setting": "SMN-luc fusion", "value": "Neither"},
      {"measurement": "in vivo activity", "setting": "severe SMA mice (SMNΔ7)", "value": "increases SMN protein and the survival"}
    ]},
    {"smiles": "O=C(Nc1ncc(C2CCC2)s1)c1ccc(F)c(Cl)c1", "note": "[Compound 26, 3-Chloro-N-(5-cyclobutylthiazol-2-yl)-4-fluorobenzamide]", "values": [
      {"measurement": "Emax", "setting": "[2]; read-out: % Activation", "value": "100 ± 16", "unit": "%"}
    ]},
    {"smiles": "O=C(Nc1ncc(C2(O)CCC2)s1)c1ccc(F)c(Cl)c1", "note": "[Compound 27, 3-Chloro-4-fluoro-N-(5-(1-hydroxycyclobutyl)thiazol-2-yl)-benzamide]", "values": [
      {"measurement": "effect on cellular levels of p53 and p21-Cip1", "setting": "[8]", "value": "did not alter"},
      {"measurement": "effect on basal level of polyubiquitinated proteins", "setting": "[7]", "value": "no effect"},
      {"measurement": "effect on SMN mRNA expression and exon 7 inclusion", "setting": "SMN-luciferase mRNA [9]", "value": "did not alter SMN mRNA expression or exon 7 inclusion"},
      {"measurement": "free fraction in human plasma", "setting": "[10]", "value": 3.5, "unit": "% free"},
      {"measurement": "effect on viability of SH5Y5Y cells", "setting": "SH5Y5Y cells", "value": "no effect"},
      {"measurement": "SMN2-luc level on combined exposure with 4", "setting": "SMN2 reporter cells; in combination with 4, 24 h", "value": "did not result in additive or above additive levels"},
      {"measurement": "SMN2-luc level on combined exposure with 5", "setting": "SMN2 reporter cells; in combination with transcriptional activator 5, 24 h", "value": "an activation above the theoretical additive was observed"},
      {"measurement": "inhibition in 58 kinase panel", "setting": "58 kinase panel", "value": "< 50", "unit": "%"},
      {"measurement": "inhibition of hERG activity", "setting": "hERG", "value": "< 50", "unit": "%"},
      {"measurement": "solubility", "setting": "[11]", "value": "~10", "unit": "µg/mL"},
      {"measurement": "free fraction in mouse plasma", "setting": "[12]", "value": 4.7, "unit": "% free"},
      {"measurement": "stabilization of SMN-luc fusion", "setting": "SMN-luc fusion", "value": "stabilized"},
      {"measurement": "inhibition of 64 other targets", "setting": "[13]", "value": "< 50", "unit": "%"},
      {"measurement": "Cmax", "setting": "mouse pharmacokinetics; ip, 20 mg/kg, ip 20 mg/kg", "value": 23, "unit": "µM"},
      {"measurement": "Cmax", "setting": "mouse pharmacokinetics; po, 20 mg/kg, adult mice, orally 20 mg/kg", "value": 0.9, "unit": "µM"},
      {"measurement": "effect on luc levels expressed from a minimal SV40 promoter", "setting": "SV40 reporter cells", "value": "minimal effects"},
      {"measurement": "degradation in acid", "setting": "acid stability in HCl", "value": "less than 5%"},
      {"measurement": "inhibition of MBP-HPV-16 E6 mediated degradation of p53", "setting": "[14]", "value": "no inhibition"},
      {"measurement": "effect on p62 and LC-3 II protein levels", "setting": "[1]", "value": "did not alter"},
      {"measurement": "effect on recombinant luciferase protein in vitro", "setting": "recombinant luciferase", "value": "minimal effects"}
    ]}
  ]
}
